Each block holds one molecule with its values, some of them ahead of it.
Assays:
RBP4 [1] = molecular target: T1, RBP4 (Homo sapiens, UniProt P02753); assay: Scintillation proximity RBP4 binding assay (SPA); design: Untagged human RBP4 purified from urine of tubular proteinuria patients; purchased Fitzgerald Industries International; host or cells: urine of tubular proteinuria patients; conditions: analogs, present-tense paper example
Method: Scintillation Proximity RBP4 Binding Assay
Untagged human RBP4 purified from urine of tubular proteinuria patients was purchased from Fitzgerald Industries International. It was biotinylated using the EZ-Link Sulfo-NHS-LC-Biotinylation kit from Pierce following the manufacturer's recommendations. Binding experiments were performed in 96-well plates (OptiPlate, PerkinElmer) in a final assay volume of 100 μl per well in SPA buffer (1×PBS, pH 7.4, 1 mM EDTA, 0.1% BSA, 0.5% CHAPS). The reaction mix contained 10 nM ^3H-Retinol (48.7 Ci/mmol; PerkinElmer), 0.3 mg/well Streptavidin-PVT beads, 50 nM biotinylated RBP4 and a test compound. Nonspecific binding was determined in the presence of 20 µM of unlabeled retinol. The reaction mix was assembled in the dark under dim red light. The plates were sealed with clear tape (TopSeal-A: 96-well microplate, PerkinElmer), wrapped in the aluminum foil, and allowed to equilibrate 6 hours at room temperature followed by overnight incubation at +4° C. Radiocounts were measured using a TopCount NXT counter (Packard Instrument Company).

RBP4-TTR interaction [2] = molecular target: T2, RBP4-TTR interaction (Homo sapiens, UniProt P02753); assay: TR-FRET (HTRF) assay for retinol-induced RBP4-TTR interaction; type: biochemical; design: human RBP4 fragment (amino acids 19-201); host or cells: Gold(DE3)pLysS E. coli strain (Stratagene), pMAL-c4x vector; conditions: analogs, present-tense paper example
Text: TR-FPET Assay for Retinol-induced RBP4-TTR Interaction
Binding of a desired RBP4 antagonist displaces retinol and induces hindrance for RBP4-TTR interaction resulting in the decreased FRET signal (FIG. 7). Bacterially expressed MBP-RBP4 and untagged TTR were used in this assay. For the use in the TR-FRET assay the maltose binding protein (MBP)-tagged human RBP4 fragment (amino acids 19-201) was expressed in the Gold(DE3)pLysS E. coli strain (Stratagene) using the pMAL-c4x vector. Following cell lysis, recombinant RBP4 was purified from the soluble fraction using the ACTA FPLC system (GE Healthcare) equipped with the 5-ml the MBP Trap HP column. Human untagged TTR was purchased from Calbiochem. Untagged TTR was labeled directly with Eu^3+ Cryptate-NHS using the HTRF Cryptate Labeling kit from CisBio following the manufacturer's recommendations. HTRF assay was performed in white low volume 384 well plates (Greiner-Bio) in a final assay volume of 16 μl per well. The reaction buffer contained 10 mM Tris-HCl pH 7.5, 1 mM DTT, 0.05% NP-40, 0.05% Prionex, 6% glycerol, and 400 mM KF. Each reaction contained 60 nM […] and 2 nM TTR-Eu along with 26.7 nM of anti-MBP antibody conjugated with d2 (Cisbio). Titration of test compounds in this assay was conducted in the presence of 1 μM retinol. All reactions were assembled in the dark under dim red light and incubated overnight at +4° C. wrapped in aluminum foil. TR-FRET signal was measured in the SpectraMax M5e Multimode Plate Reader (Molecular Device). Fluorescence was excited at 337 nm and two readings per well were taken: Reading 1 for time-gated energy transfer from Eu(K) to d2 (337 nm excitation, […] emission, counting delay 75 microseconds, counting window 100 microseconds) and Reading 2 for Eu(K) time-gated fluorescence (337 nm excitation, 620 rum emission, counting delay 400 microseconds, counting window 400 microseconds). The TR-FRET signal was expressed as the ratio of fluorescence intensity: Flu665/Flu620×10,000.

[3] = tested on: retinal pigment epithelium cells; conditions: many cell types, including the retinal pigment epithelium cells; cited from earlier work
[4] = in vivo; cited from earlier work
mice = conditions: cited from earlier work
RBP4 [5] = molecular target: T1, RBP4; conditions: cited from earlier work
Abca4−/− mice = conditions: cited from earlier work
RBP4-TTR interaction [6] = molecular target: T2, RBP4-TTR interaction; conditions: cited from earlier work

melting point: 148 to 151 °C
SMILES: CN(CCOc1ccccc1C(C)(C)C)C(=O)c1c[nH]nn1 [Compound 12, N-(2-(2-(Tert-butyl)phenoxy)ethyl)-N-methyl-1H-1,2,3-triazole-5-carboxamide]

melting point: 98 to 101 °C
SMILES: CN(CCOc1ccccc1C(C)(C)C)C(=O)C(=O)O [Compound 13, 2-((2-(2-(Tert-butyl)phenoxy)ethyl)(methyl)amino)-2-oxoacetic Acid]

melting point: 146 to 149 °C
SMILES: CC(C)c1ccccc1OCCN(C)C(=O)Nc1ccccc1C(=O)O [Compound 17, 2-(3-(2-(2-Isopropylphenoxy)ethyl)-3-methylureido)benzoic Acid]

melting point: 218 to 220 °C
SMILES: CN(CCOc1ccccc1C(C)(C)C)C(=O)Nc1ccncc1C(=O)O [Compound 18, 4-(3-(2-(2-(tert-butyl)phenoxy)ethyl)-3-methylureido)nicotinic Acid]

melting point: 73 to 78 °C
SMILES: CN(CCOc1ccc(Cl)cc1C(C)(C)C)C(=O)c1cn2ncccc2n1 [Compound 21, N-(2-(2-(tert-butyl)-4-chlorophenoxy)ethyl)-N-methylimidazo[1,2-b]pyridazine-2-carboxamide]

melting point: 186 to 190 °C
SMILES: CN(CCOc1ccccc1C(C)(C)C)C(=O)c1n[nH]c2ccc(F)cc12 [Compound 22, N-(2-(2-(tert-butyl)phenoxy)ethyl)-5-fluoro-N-methyl-1H-indazole-3-carboxamide]

melting point: 75 to 80 °C
SMILES: CN(CCOc1ccccc1C(C)(C)C)C(=O)c1cn2ncccc2n1 [Compound 23, N-(2-(2-(Tert-butyl)phenoxy)ethyl)-N-methylimidazo[1,2-b]pyridazine-2-carboxamide]

melting point: 157 to 159 °C
SMILES: CN(CCOc1ccccc1C(C)(C)C)C(=O)c1n[nH]c2ncccc12 [Compound 24, N-(2-(2-(Tert-butyl)phenoxy)ethyl)-N-methyl-1H-pyrazolo[3,4-b]pyridine-3-carboxamide]

melting point: 116 to 120 °C
SMILES: CN(CCOc1ccccc1C(C)(C)C)C(=O)c1nnc2n1CCOC2 [Compound 25, N-(2-(2-(Tert-butyl)phenoxy)ethyl)-N-methyl-6,8-dihydro-5H-[1,2,4]triazolo[3,4-c][1,4]oxazine-3-carboxamide]

melting point: 125 to 133 °C
SMILES: CN(CCOc1ccccc1C(C)(C)C)C(=O)c1n[nH]c2c1CN(S(C)(=O)=O)C2 [Compound 28, N-(2-(2-(Tert-butyl)phenoxy)ethyl)-N-methyl-5-(methylsulfonyl)-1,4,5,6-tetrahydropyrrolo[3,4-c]pyrazole-3-carboxamide]

melting point: 226 to 230 °C
SMILES: CN(CCOc1ccccc1C(C)(C)C)C(=O)c1n[nH]c2c1CN(S(C)(=O)=O)CC2 [Compound 30, N-(2-(2-(tert-butyl)phenoxy)ethyl)-N-methyl-5-(methylsulfonyl)-4,5,6,7-tetrahydro-1H-pyrazolo[4,3-c]pyridine-3-carboxamide]

melting point: 233 to 237 °C
SMILES: CN(CCOc1ccccc1C(C)(C)C)C(=O)c1n[nH]c2c1CCN(S(C)(=O)=O)C2 [Compound 33, N-(2-(2-(Tert-butyl)phenoxy)ethyl)-N-methyl-6-(methylsulfonyl)-4,5,6,7-tetrahydro-1H-pyrazolo[3,4-c]pyridine-3-carboxamide]

melting point: 159 to 161 °C
SMILES: CN1CCc2c(C(=O)N(C)CCOc3ccccc3C(C)(C)C)n[nH]c2C1 [Compound 34, N-(2-(2-(Tert-butyl)phenoxy)ethyl)-N,6-dimethyl-4,5,6,7-tetrahydro-1H-pyrazolo[3,4-c]pyridine-3-carboxamide]

RBP4 binding (SPA) (RBP4 [1]): bind to RBP4
SMILES: COC(=O)c1cc(C)nc(N(C)CCOc2ccccc2C(C)(C)C)n1 [Compound 36, methyl 2-((2-(2-(tert-butyl)phenoxy)ethyl)(methyl)amino)-6-methylpyrimidine-4-carboxylate]
antagonism of retinol-dependent RBP4-TTR interaction (HTRF) (RBP4-TTR interaction [2]): antagonize retinol-dependent RBP4-TTR interaction

RBP4 binding (SPA) (RBP4 [1]): bind to RBP4
SMILES: Cc1cc(C(=O)O)nc(N(C)CCOc2ccccc2C(C)(C)C)n1 [Compound 37, 2-((2-(2-(tert-butyl)phenoxy)ethyl)(methyl)amino)-6-methylpyrimidine-4-carboxylic acid]
antagonism of retinol-dependent RBP4-TTR interaction (HTRF) (RBP4-TTR interaction [2]): antagonize retinol-dependent RBP4-TTR interaction

RBP4 binding (SPA) (RBP4 [1]): bind to RBP4
SMILES: COC(=O)c1cc(C)nc(N(C)CCOc2cc(C(F)(F)F)cc(C(F)(F)F)c2)n1 [Compound 38, methyl 2-((2-(3,5-bis(trifluoromethyl)phenoxy)ethyl)(methyl)amino)-6-methylpyrimidine-4-carboxylate]
antagonism of retinol-dependent RBP4-TTR interaction (HTRF) (RBP4-TTR interaction [2]): antagonize retinol-dependent RBP4-TTR interaction

RBP4 binding (SPA) (RBP4 [1]): bind to RBP4
SMILES: Cc1cc(C(=O)O)nc(N(C)CCOc2cc(C(F)(F)F)cc(C(F)(F)F)c2)n1 [Compound 39, 2-((2-(3,5-bis(trifluoromethyl)phenoxy)ethyl)(methyl)amino)-6-methylpyrimidine-4-carboxylic acid]
antagonism of retinol-dependent RBP4-TTR interaction (HTRF) (RBP4-TTR interaction [2]): antagonize retinol-dependent RBP4-TTR interaction

SMILES: CC1=C(/C=C/C(C)=C/C=C/C(C)=C/C(=O)Nc2ccc(O)cc2)C(C)(C)CCC1 [fenretinide, N-(4-hydroxy-phenyl)retinamide]
induction of apoptosis [3]: extremely active inducer of apoptosis | serum RBP4 and retinol [4]: reduce serum RBP4 and retinol | formation of hemangiosarcomas (mice): stimulate formation of hemangiosarcomas | binding to RBP4 (RBP4 [5]): bind to RBP4 | displacement of all-trans retinol from RBP4 (RBP4 [5]): displace all-trans retinol from RBP4 | A2E production (Abca4−/− mice; Abca4−/− mice, animal model of excessive bisretinoid accumulation): reduced A2E production | ocular all-trans retinol uptake (Abca4−/− mice; mouse, in vivo): inhibit ocular all-trans retinol uptake | visual cycle (Abca4−/− mice; mouse, in vivo): slow down the visual cycle | disruption of the RBP4-TTR interaction (RBP4-TTR interaction [6]): disrupt the RBP4-TTR interaction

Source: patent US10570148B2, “N-alkyl-2-phenoxyethanamines, their preparation and use” (The Trustees of Columbia University In the City of New York, priority 2013, dated 2020)
